Marks after values point to notes of the source that are not given here.
Legend:
Format in all cases: in vivo
[1] = tested on: Kunming mice; assay: Influence on hypnosis effect with pentobarbital sodium doses at the threshold (50 mg/kg i.p.); conditions: pentobarbital sodium 50 mg/kg i.p. 60 min later, x ± s, n = 10
Outline: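 Pentobarbital sodium (0.3%, 50 mg/kg i.p.) injected 60 min after a single intragastric dose (25, 50, 100 mg/kg, 0.5% CMC-Na vehicle) in Kunming mice, 10 per group, sexes balanced. Onset and length of sleep (righting reflex lost over 1 min) analysed by ANOVA; sleeping incidence by χ2 test.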

[2] = tested on: Kunming mice; assay: Influence on autonomic activity of normal mice (ZIL-2 mice autonomic activity meter, counts within 10 min); conditions: intragastric, x ± s, n = 10; for Times of activities in 1 h after drug administration/10 min: 1 h after administration; for Times of activities in 2 h after drug administration/10 min: 2 h after administration; for Times of activities in 24 h after drug administration/10 min: 24 h after administration
Outline: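 Activity counts during a 10-min window were taken at 1, 2 and 24 h after dosing in groups of 10 mixed-sex Kunming mice. Compounds were given in 0.5% CMC-Na at 25, 50 or 100 mg/kg. Statistics used Levene's homogeneity test, ANOVA and Dunnett's multiple comparisons.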

[3] = tested on: Kunming mice; assay: Influence on hypnosis effect with pentobarbital sodium doses below the threshold (25 mg/kg i.p.); conditions: pentobarbital sodium 25 mg/kg i.p. 60 min later, sleep observed in 30 min, n = 10
Outline: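 Percentage of mice sleeping within 30 min after subthreshold pentobarbital sodium (25 mg/kg i.p.), defined by loss of righting reflex over 1 min, analysed by χ2. Compound in 0.5% CMC-Na given intragastrically at 25/50/100 mg/kg 60 min before; groups of 10 Kunming mice, both sexes.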

[4] = 25 mg/kg intragastric single dose
[5] = 50 mg/kg intragastric single dose
[6] = 100 mg/kg intragastric single dose
[7] = test drug 25 mg/kg intragastric single dose
[8] = test drug 50 mg/kg intragastric single dose
[9] = test drug 100 mg/kg intragastric single dose

Row | SMILES | duration of sleep [1, 4] [min] | time to sleep [1, 4] [min] | duration of sleep [1, 5] [min] | time to sleep [1, 5] [min] | duration of sleep [1, 6] [min] | time to sleep [1, 6] [min] | Times of activities in 1 h after drug administration/10 min ([2]; 25 mg/kg) | Times of activities in 2 h after drug administration/10 min ([2]; 25 mg/kg) | Times of activities in 24 h after drug administration/10 min ([2]; 25 mg/kg) | Times of activities in 1 h after drug administration/10 min ([2]; 50 mg/kg) | Times of activities in 2 h after drug administration/10 min ([2]; 50 mg/kg) | Times of activities in 24 h after drug administration/10 min ([2]; 50 mg/kg) | Times of activities in 1 h after drug administration/10 min ([2]; 100 mg/kg) | Times of activities in 2 h after drug administration/10 min ([2]; 100 mg/kg) | Times of activities in 24 h after drug administration/10 min ([2]; 100 mg/kg) | Number of sleeping animals [3, 7] | rate of sleeping (%) [3, 7] | Number of sleeping animals [3, 8] | rate of sleeping (%) [3, 8] | Number of sleeping animals [3, 9] | other results
1 | CC=Cc1cc(-c2cc(=O)c3c(CCCCC)cc(C(=O)O)cc3o2)cc(C(=O)O)c1C#N [Example 26] | 23.01 ± 25.99 | 5.38 ± 2.22 | 28.69 ± 26.56 | 5.12 ± 2.32 | 65.28 ± 46.29 | 3.24 ± 1.16 | 310.7 ± 59.5 /10 min | 279.0 ± 32.2 /10 min | 313.5 ± 68.8 /10 min | 284.7 ± 46.1 /10 min | 267.1 ± 43.5 /10 min | 314.1 ± 82.3 /10 min | 263.6 ± 42.4 /10 min | 245.6 ± 40.8 /10 min | 322.6 ± 61.2 /10 min | 4 | 40* % | 5 | 50** % | 7 | rate of sleeping (%) [3, 9]: 70** %
2 | COc1ccc(-c2cc(=O)c3cc(OC)c(OC)c(OC)c3o2)cc1OC [Example 27] | 31.32 ± 22.99 | 4.88 ± 1.89 | 60.34 ± 16.90 | 4.15 ± 1.65 | 62.15 ± 33.37 | 3.73 ± 1.47 | 291.3 ± 52.1 /10 min | 282.2 ± 41.5 /10 min | 293.6 ± 82.9 /10 min | 169.6 ± 51.3 /10 min | 193.2 ± 56.4 /10 min | 295.7 ± 92.3 /10 min | 124.2 ± 39.4 /10 min | 138.9 ± 48.9 /10 min | 278.6 ± 92.7 /10 min | 5 | 50** % | 6 | 60** % | 7 | rate of sleeping (%) [3, 9]: 70** %
3 | N#CSc1ccc(-c2cc(=O)c3cc(N)c(F)c(C#N)c3o2)cc1O [Example 28] | 27.68 ± 23.55 | 5.48 ± 2.25 | 46.89 ± 23.61 | 4.31 ± 1.19 | 55.49 ± 21.02 | 3.93 ± 2.45 | 289.8 ± 50.1 /10 min | 278.3 ± 42.9 /10 min | 315.2 ± 76.3 /10 min | 248.9 ± 61.1 /10 min | 260.8 ± 58.1 /10 min | 327.5 ± 80.7 /10 min | 144.2 ± 32.5 /10 min | 237.5 ± 44.3 /10 min | 308.7 ± 84.7 /10 min | 3 | 30% | 5 | 50** % | 6 | rate of sleeping (%) [3, 9]: 60** %
4 | C=Cc1cc2c(=O)cc(-c3ccc(CC)c(N)c3)oc2c(C2CCSC2)c1C(N)=O (stereo not drawn) [Example 30] | 38.82 ± 15.41 | 4.37 ± 1.58 | 43.66 ± 21.43 | 3.73 ± 1.22 | 58.74 ± 19.57 | 3.25 ± 1.31 | 289.2 ± 45.7 /10 min | 264.1 ± 42.2 /10 min | 302.2 ± 87.3 /10 min | 235.8 ± 42.1 /10 min | 244.5 ± 48.2 /10 min | 294.5 ± 70.6 /10 min | 134.6 ± 35.7 /10 min | 173.5 ± 39.2 /10 min | 288.8 ± 92.1 /10 min | 5 | 50** % | 6 | 60** % | 8 | rate of sleeping (%) [3, 9]: 80*** %
5 | C=Cc1ccc(-c2cc(=O)c3cc(C#N)c(Cc4ccccc4)c(C=CC)c3o2)cc1[N+](=O)[O-] [Example 32] | 25.80 ± 22.64 | 5.38 ± 2.21 | 46.11 ± 24.53 | 4.34 ± 1.45 | 54.78 ± 20.89 | 3.86 ± 2.35 | 332.1 ± 47.8 /10 min | 321.3 ± 53.9 /10 min | 327.8 ± 93.9 /10 min | 270.2 ± 59.3 /10 min | 269.3 ± 50.3 /10 min | 334.7 ± 95.6 /10 min | 245.9 ± 38.8 /10 min | 258.9 ± 49.9 /10 min | 322.7 ± 88.5 /10 min | 3 | 30% | 5 | 50** % | 6 | rate of sleeping (%) [3, 9]: 60** %
6 | C#Cc1ccc(-c2cc(=O)c3cc(F)c(C(=O)O)c(O)c3o2)cc1CCCCCCCCCCCCCCCCCCCC [Example 33] | 30.43 ± 22.06 | 4.81 ± 2.37 | 36.53 ± 13.21 | 4.62 ± 1.75 | 51.56 ± 20.75 | 3.82 ± 1.12 | 304.9 ± 39.2 /10 min | 298.2 ± 35.6 /10 min | 273.2 ± 80.8 /10 min | 266.4 ± 51.6 /10 min | 247.1 ± 58.3 /10 min | 284.7 ± 78.7 /10 min | 179.0 ± 49.1 /10 min | 165.8 ± 52.3 /10 min | 318.4 ± 80.5 /10 min | 5 | 50** % | 6 | 60** % | 7 | rate of sleeping (%) [3, 9]: 70*** %

From patent publication US9669003B2, “Use of flavone and flavanone derivatives in preparation of sedative and hypnotic drugs” (priority 2012, dated 2017)
